The text below walks through data of article PMC6254361, “The properties of Msh2–Msh6 ATP binding mutants suggest a signal amplification mechanism in DNA mismatch repair” (The Journal of Biological Chemistry, 2018).

The target in this assay is T1, Msh2–Msh6 (Saccharomyces cerevisiae, UniProt P25847+Q03834).
T1 sequence (P25847 1-964): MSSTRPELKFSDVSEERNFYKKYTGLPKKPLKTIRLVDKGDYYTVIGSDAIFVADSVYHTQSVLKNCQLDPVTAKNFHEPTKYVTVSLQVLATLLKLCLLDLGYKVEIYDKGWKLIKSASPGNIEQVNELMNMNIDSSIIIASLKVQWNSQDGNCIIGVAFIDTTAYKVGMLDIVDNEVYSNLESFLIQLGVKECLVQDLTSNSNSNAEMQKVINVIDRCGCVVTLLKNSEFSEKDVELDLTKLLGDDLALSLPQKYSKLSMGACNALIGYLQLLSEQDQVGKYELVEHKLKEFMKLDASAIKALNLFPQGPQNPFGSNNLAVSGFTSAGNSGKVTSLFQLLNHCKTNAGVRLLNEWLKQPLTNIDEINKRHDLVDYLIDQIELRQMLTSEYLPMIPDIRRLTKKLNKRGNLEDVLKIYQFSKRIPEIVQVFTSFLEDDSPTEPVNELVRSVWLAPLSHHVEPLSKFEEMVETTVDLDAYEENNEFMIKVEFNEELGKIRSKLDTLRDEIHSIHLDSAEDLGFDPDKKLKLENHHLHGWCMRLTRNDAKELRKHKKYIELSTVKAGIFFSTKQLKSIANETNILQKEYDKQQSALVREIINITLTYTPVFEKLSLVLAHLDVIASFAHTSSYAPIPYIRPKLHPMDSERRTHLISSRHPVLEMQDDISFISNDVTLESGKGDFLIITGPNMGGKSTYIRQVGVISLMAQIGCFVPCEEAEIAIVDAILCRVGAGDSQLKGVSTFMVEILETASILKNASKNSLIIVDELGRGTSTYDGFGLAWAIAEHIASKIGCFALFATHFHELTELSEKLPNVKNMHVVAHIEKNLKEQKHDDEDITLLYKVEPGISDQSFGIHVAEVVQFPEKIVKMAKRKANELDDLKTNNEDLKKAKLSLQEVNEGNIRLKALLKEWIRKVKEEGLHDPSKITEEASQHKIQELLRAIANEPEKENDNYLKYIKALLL
T1 sequence (Q03834 1-1242): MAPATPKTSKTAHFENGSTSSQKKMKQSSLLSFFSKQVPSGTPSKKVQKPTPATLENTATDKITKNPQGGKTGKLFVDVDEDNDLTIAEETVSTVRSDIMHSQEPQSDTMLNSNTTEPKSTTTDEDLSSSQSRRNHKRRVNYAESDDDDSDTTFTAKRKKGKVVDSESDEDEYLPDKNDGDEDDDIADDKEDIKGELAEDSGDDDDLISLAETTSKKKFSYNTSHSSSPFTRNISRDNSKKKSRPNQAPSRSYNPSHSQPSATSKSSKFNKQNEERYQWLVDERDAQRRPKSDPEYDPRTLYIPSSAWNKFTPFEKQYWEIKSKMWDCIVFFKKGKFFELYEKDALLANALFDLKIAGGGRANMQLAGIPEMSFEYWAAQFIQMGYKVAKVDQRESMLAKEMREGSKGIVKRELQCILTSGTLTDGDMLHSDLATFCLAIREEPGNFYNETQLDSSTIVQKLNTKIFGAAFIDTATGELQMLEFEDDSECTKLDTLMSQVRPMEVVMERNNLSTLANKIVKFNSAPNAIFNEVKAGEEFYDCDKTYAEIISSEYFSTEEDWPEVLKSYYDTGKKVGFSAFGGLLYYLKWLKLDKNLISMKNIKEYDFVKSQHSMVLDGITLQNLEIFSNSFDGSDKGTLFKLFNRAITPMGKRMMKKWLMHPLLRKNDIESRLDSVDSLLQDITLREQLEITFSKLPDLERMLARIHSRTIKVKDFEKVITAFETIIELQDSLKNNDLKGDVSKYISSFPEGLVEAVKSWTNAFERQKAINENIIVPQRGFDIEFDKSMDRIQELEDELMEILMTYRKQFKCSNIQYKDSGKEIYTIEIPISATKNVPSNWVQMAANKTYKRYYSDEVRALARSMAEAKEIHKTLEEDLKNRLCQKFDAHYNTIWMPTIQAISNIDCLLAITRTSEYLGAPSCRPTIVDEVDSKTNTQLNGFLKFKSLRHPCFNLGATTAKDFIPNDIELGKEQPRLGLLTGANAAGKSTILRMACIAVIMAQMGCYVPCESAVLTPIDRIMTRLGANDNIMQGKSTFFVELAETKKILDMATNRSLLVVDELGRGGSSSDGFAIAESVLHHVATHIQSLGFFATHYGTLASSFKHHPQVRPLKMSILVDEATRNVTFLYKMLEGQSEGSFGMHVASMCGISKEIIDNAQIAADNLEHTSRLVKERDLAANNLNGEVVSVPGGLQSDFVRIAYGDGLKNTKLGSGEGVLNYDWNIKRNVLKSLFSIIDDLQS
Nature of the assay: UV cross-linking of [γ-32P]ATP, SDS-PAGE, phosphorimaging. The assay is classed as binding. The note with it: labelled compound; reference complex; no Mg2+, EDTA, pH 8, on ice; Msh2 site at 60 μM ATP, Msh6 site at 1 μM ATP.

Structures are written as SMILES.

As for `Nc1ncnc2c1ncn2[C@@H]1O[C@H](COP(=O)(O)OP(=O)(O)OP(=O)(O)O)[C@@H](O)[C@H]1O` [ATP], the “UV cross-linking of [γ-32P]ATP, SDS-PAGE, phosphorimaging” value is listed as “ATP binding at these concentrations was compared with WT Msh2–Msh6”.
